# Data reported in US7566697B2, “Carboxy protection strategies for acidic C-terminal amino acids in chemical ligation of oligopeptides” (Amylin Pharmaceuticals, Inc., priority 2002, dated 2009).
# Residues, ends and D or L forms follow the SMILES beside them. Primed or numbered codes have the meaning given here. No end group written: not given here. *: point of attachment. diMeOPac = (2',4'-dimethoxy)phenacyl ester on the Asp side chain, COc1ccc(C(=O)C*)c(OC)c1; Fmoc = O=C(OCC1c2ccccc2-c2ccccc21)*; X1 = CC(O*)C(=O)c1ccccc1; OPac′ = phenacyl ester; X2 = ClC(Cl)(Cl)CO*
# Key:
# [1] = buffer, pH 6.5
# Protocol: The C-terminal unprotected peptide (1.5 equivalent) and the N-terminal peptide (1 equivalent) were solubilized in freshly degassed 6M guanidinium hydrochloride, 0.2 M sodium phosphate, pH 7.5 buffer at a concentration of 2.5 mM each. After addition of 1% thiophenol and 1% benzyl mercaptan the pH was adjusted to 6.5 (or different thiols concentration or pH as reported in the text). Aliquots of this solution were treated with equal volumes of BME for 5 minutes and then with 10% TCEP for 10 minutes to completely hydrolyse any thiol adduct before HPLC analysis. Ligation reaction analysis was conducted using a gradient starting from 10% of B with a gradient slope of 1.66% of B per minute. Base line resolution of the different isomerization product was achieved using a gradient starting at 20% of B and with an increase of 0.33% B.
# SV8 protease = SV8 protease (Staphylococcus aureus, UniProt P0C1U8); settings: 1 unit/20 μg, 24 hours at 37° C.
# Chain of SV8 protease (P0C1U8 69-336): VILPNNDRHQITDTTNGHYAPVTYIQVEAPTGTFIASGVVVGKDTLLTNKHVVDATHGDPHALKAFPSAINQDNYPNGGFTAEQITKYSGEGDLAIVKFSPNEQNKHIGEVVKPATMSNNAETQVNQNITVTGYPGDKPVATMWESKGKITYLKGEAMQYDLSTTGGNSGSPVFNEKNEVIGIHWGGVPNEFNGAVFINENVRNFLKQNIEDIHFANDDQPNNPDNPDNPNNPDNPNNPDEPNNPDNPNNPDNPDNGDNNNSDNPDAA
# Protocol: Peptides were digested using the enzyme SV8 protease. The peptides, solubilized to a final 5 mM concentration in 0.1 M NH4HCO3 and 0.3% BME, were digested by adding the enzyme solution (250 unit/ml), keeping the enzyme/peptide ratio of 1 unit/20 μg. The reaction was stopped after 24 hours at 37° C. by treatment with equal volumes of 10% TCEP, and extent of digestion assayed by RP-HPLC. Digested fragments were characterized by ESI-MS.
Compound,Hydrolysis t1/2 [1] [h],half-life in the ligation condition [1],digestion by SV8 protease (SV8 protease)
"CC(=O)N[C@@H](CC(=O)OC(C)C(=O)c1ccccc1)C(=O)N[C@@H](Cc1ccc(O)cc1)C(=O)N[C@@H](C)C(=O)N[C@@H](CCCCN)C(=O)N[C@@H](Cc1ccc(O)cc1)C(=O)N[C@@H](C)C(=O)N[C@@H](CCCCN)C(=O)N[C@@H](CC(C)C)C(=O)O (some centres unmarked) [OMop, Ac-D(OMop)YAKYAKL] (Ac-D(X1)YAKYAKL-OH)",9.9,20.8 days,–
"CC(C)C[C@H](NC(=O)[C@H](CCCCN)NC(=O)[C@H](C)NC(=O)[C@H](Cc1ccc(O)cc1)NC(=O)[C@H](CCCCN)NC(=O)[C@H](C)NC(=O)[C@H](Cc1ccc(O)cc1)NC(=O)[C@H](CC(=O)OCC(Cl)(Cl)Cl)NC(=O)OCC1c2ccccc2-c2ccccc21)C(=O)O [Troc, Fmoc-D(Troc)YAKYAKL] (Fmoc-D(X2)YAKYAKL-OH)",1.5,less than 2 hours,–
Ac-D(OPac)YAKYAKL (Ac-D(OPac′)YAKYAKL),1.2,–,–
Ac-D(diMeOPac)YAKYAKL [OdiMeOPac],3.8,–,–
LYRAD(β)CSYUFL [product 6],–,–,unaffected by the enzyme
LYRAE(γ)CSYRFL [product 7],–,–,unaffected by the enzyme
